Measured values: PubChem BioAssay AID250 (DTP/NCI, 2004)
Where “and” joins values, the source holds several entries; their conditions need not be identical. Equal values may be shown once. Inconclusive results and toxic doses are left out.

Test system: BDF1 mice, L1210 leukemia sc, survival T/C
Experiment: NCI In Vivo Anticancer Drug Screen. Data for tumor model L1210 Leukemia (subcutaneous) in B6D2F1 (BDF1) mice
Conditions: endpoint: median survival time, higher = longer survival
How it was run: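 Transplantable tumor-bearing mice; survival or tumor size recorded; result = T/C, treated vs vehicle control.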

[1] = dose: 23.0 mg/kg/injection, schedule: Q01DX Z (sc), vehicle: saline
[2] = dose: 38.9 mg/kg/injection, schedule: Q01DX Z (sc), vehicle: saline
[3] = dose: 64.8 mg/kg/injection, schedule: Q01DX Z (sc), vehicle: saline

SMILES: O=c1[nH]c(=O)n(C2CC(O)C(CO)O2)cc1F (stereo unspecified)
- T/C (dose: 4.0 mg/kg/injection, schedule: Q01DX Z (sc), vehicle: saline): 100 % of control
- T/C (dose: 5.0 mg/kg/injection, schedule: Q01DX009 (ip), vehicle: water): 100 % of control
- T/C (dose: 5.0 mg/kg/injection, schedule: Q01DX009 (sc), vehicle: water): 101 % of control
- T/C (dose: 8.0 mg/kg/injection, schedule: Q01DX Z (sc), vehicle: saline): 100 % of control
- T/C (dose: 10.0 mg/kg/injection, schedule: Q01DX009 (ip), vehicle: water): 97 % of control
- T/C (dose: 10.0 mg/kg/injection, schedule: Q01DX009 (sc), vehicle: water): 98 % of control
- T/C (dose: 16.0 mg/kg/injection, schedule: Q01DX Z (sc), vehicle: saline): 111 % of control
- T/C (dose: 20.0 mg/kg/injection, schedule: Q01DX009 (ip), vehicle: water): 101 % of control
- T/C (dose: 20.0 mg/kg/injection, schedule: Q01DX009 (sc), vehicle: water): 104 % of control
- T/C [1]: 100 % of control
- T/C (dose: 23.3 mg/kg/injection, schedule: Q01DX Z (sc), vehicle: saline): 104 % of control
- T/C (dose: 32.0 mg/kg/injection, schedule: Q01DX Z (sc), vehicle: saline): 111 % of control
- T/C [2]: 91 % of control
- T/C (dose: 39.0 mg/kg/injection, schedule: Q01DX Z (sc), vehicle: saline): 100 % of control
- T/C (dose: 40.0 mg/kg/injection, schedule: Q01DX009 (ip), vehicle: water): 110 % of control
- T/C (dose: 40.0 mg/kg/injection, schedule: Q01DX009 (sc), vehicle: water): 121 % of control
- T/C (dose: 50.0 mg/kg/injection, schedule: Q01DX009 (sc), vehicle: water): 100 % of control
- T/C (dose: 64.0 mg/kg/injection, schedule: Q01DX Z (sc), vehicle: saline): 105 % of control
- T/C [3]: 100 % of control
- T/C (dose: 65.0 mg/kg/injection, schedule: Q01DX Z (sc), vehicle: saline): 100 % of control and 105 % of control
- T/C (dose: 80.0 mg/kg/injection, schedule: Q01DX009 (ip), vehicle: water): 124 % of control
- T/C (dose: 100.0 mg/kg/injection, schedule: Q01DX009 (sc), vehicle: water): 110 % of control
- T/C (dose: 200.0 mg/kg/injection, schedule: Q01DX009 (sc), vehicle: water): 150 % of control
- T/C (dose: 256.0 mg/kg/injection, schedule: Q01DX Z (sc), vehicle: saline): 161 % of control
- T/C (dose: 400.0 mg/kg/injection, schedule: Q01DX009 (sc), vehicle: water): 153 % of control

SMILES: O=c1[nH]cc(Br)c(=O)[nH]1
- T/C [2]: 91 % of control
- T/C [3]: 95 % of control
- T/C (dose: 108.0 mg/kg/injection, schedule: Q01DX Z (sc), vehicle: saline): 100 % of control
- T/C (dose: 180.0 mg/kg/injection, schedule: Q01DX Z (sc), vehicle: saline): 100 % of control
- T/C (dose: 300.0 mg/kg/injection, schedule: Q01DX Z (sc), vehicle: saline): 100 % of control
- T/C (dose: 500.0 mg/kg/injection, schedule: Q01DX Z (sc), vehicle: saline): 100 % of control

SMILES: CCN(CC)CCCC(C)Nc1c2ccc(Cl)cc2nc2ccc(OC)cc12 (stereo unspecified)
- T/C (dose: 23.0 mg/kg/injection, schedule: Q01DX Z (sc), vehicle: water): 90 % of control
- T/C (dose: 39.0 mg/kg/injection, schedule: Q01DX Z (sc), vehicle: water): 100 % of control
- T/C (dose: 65.0 mg/kg/injection, schedule: Q01DX Z (sc), vehicle: water): 100 % of control
- T/C (dose: 108.0 mg/kg/injection, schedule: Q01DX Z (sc), vehicle: water): 95 % of control
- T/C (dose: 180.0 mg/kg/injection, schedule: Q01DX Z (sc), vehicle: water): 100 % of control
- T/C (dose: 300.0 mg/kg/injection, schedule: Q01DX Z (sc), vehicle: water): 100 % of control

SMILES: CCCC(=O)NC1=C(N2CC2)C(=O)C(NC(=O)CCC)=C(N2CC2)C1=O
- T/C (dose: 1.8 mg/kg/injection, schedule: Q01DX Z (sc), vehicle: saline): 100 % of control
- T/C (dose: 3.0 mg/kg/injection, schedule: Q01DX Z (sc), vehicle: saline): 111 % of control
- T/C (dose: 8.4 mg/kg/injection, schedule: Q01DX Z (sc), vehicle: saline): 183 % of control
- T/C (dose: 14.0 mg/kg/injection, schedule: Q01DX Z (sc), vehicle: saline): 150 % of control
- T/C [1]: 122 % of control

SMILES: CSc1ncnc2nc[nH]c12
- T/C (dose: 38.9 mg/kg/injection, schedule: Q01DX Z (sc), vehicle: methylcellulose (MC)): 95 % of control
- T/C (dose: 64.8 mg/kg/injection, schedule: Q01DX Z (sc), vehicle: methylcellulose (MC)): 105 % of control
- T/C (dose: 108.0 mg/kg/injection, schedule: Q01DX Z (sc), vehicle: methylcellulose (MC)): 110 % of control
- T/C (dose: 180.0 mg/kg/injection, schedule: Q01DX Z (sc), vehicle: methylcellulose (MC)): 100 % of control
